{
  "source": "ChEMBL document CHEMBL1131722",
  "about": "“P1, P2'-linked macrocyclic amine derivatives as matrix metalloproteinase inhibitors” (Bioorg Med Chem Lett, 1999)",
  "key": {"[1]": {"molecular_target": "Matrix metalloproteinase-9 (Homo sapiens, UniProt P14780)", "sequence (P14780 whole entry)": "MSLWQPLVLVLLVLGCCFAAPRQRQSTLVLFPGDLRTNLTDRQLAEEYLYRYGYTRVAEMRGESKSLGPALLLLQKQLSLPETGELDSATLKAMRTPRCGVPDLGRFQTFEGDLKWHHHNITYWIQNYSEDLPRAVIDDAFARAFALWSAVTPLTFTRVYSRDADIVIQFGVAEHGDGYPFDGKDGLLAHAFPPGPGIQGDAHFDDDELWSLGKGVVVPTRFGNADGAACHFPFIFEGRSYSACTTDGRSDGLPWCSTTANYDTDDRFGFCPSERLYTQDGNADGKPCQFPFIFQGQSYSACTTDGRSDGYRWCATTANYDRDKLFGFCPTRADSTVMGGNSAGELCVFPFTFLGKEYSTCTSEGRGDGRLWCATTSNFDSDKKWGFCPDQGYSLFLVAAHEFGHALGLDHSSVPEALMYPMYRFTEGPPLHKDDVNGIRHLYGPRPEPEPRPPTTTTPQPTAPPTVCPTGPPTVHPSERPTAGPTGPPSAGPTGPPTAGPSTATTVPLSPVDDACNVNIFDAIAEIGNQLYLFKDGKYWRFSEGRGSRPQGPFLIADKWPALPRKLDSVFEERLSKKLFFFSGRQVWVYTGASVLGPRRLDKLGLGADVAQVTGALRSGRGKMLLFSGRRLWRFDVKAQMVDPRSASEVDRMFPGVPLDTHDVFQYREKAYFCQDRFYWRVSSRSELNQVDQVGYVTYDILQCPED", "assay": "Inhibition of Matrix metalloprotease-9 (MMP-9)"}, "[2]": {"molecular_target": "T1, Interstitial collagenase (Homo sapiens, UniProt P03956)", "T1 sequence (P03956 whole entry)": "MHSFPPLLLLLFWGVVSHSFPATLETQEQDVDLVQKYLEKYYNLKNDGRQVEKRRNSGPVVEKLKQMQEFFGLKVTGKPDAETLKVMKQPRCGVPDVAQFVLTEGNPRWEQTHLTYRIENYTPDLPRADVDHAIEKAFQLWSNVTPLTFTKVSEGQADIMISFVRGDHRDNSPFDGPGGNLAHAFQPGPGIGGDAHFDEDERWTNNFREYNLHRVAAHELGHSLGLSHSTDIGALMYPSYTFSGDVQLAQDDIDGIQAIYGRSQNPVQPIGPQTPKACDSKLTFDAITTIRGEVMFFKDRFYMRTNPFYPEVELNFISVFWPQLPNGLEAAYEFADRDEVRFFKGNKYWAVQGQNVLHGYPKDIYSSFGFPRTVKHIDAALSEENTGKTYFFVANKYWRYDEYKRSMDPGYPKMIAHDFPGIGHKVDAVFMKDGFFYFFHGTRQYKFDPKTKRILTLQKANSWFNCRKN", "assay": "Inhibition of Matrix metalloprotease-1 (MMP-1)"}, "[3]": {"molecular_target": "Stromelysin-1 (Homo sapiens, UniProt P08254)", "sequence (P08254 whole entry)": "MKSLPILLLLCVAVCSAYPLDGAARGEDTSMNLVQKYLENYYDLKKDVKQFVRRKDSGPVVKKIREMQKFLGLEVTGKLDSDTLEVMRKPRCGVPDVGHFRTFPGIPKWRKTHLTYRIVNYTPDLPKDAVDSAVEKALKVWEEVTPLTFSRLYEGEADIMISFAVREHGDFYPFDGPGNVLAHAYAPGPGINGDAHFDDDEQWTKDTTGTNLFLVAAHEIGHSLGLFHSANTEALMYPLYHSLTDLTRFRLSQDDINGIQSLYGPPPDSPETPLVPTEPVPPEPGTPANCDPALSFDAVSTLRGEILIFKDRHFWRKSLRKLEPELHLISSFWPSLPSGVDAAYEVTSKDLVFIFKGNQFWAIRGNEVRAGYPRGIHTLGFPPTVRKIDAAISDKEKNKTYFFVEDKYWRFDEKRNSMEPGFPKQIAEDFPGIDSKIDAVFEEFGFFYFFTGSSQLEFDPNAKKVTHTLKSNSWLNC", "assay": "Inhibition of Matrix metalloprotease-3 (MMP-3)"}, "[4]": {"molecular_target": "Neutrophil collagenase (Homo sapiens, UniProt P22894)", "sequence (P22894 whole entry)": "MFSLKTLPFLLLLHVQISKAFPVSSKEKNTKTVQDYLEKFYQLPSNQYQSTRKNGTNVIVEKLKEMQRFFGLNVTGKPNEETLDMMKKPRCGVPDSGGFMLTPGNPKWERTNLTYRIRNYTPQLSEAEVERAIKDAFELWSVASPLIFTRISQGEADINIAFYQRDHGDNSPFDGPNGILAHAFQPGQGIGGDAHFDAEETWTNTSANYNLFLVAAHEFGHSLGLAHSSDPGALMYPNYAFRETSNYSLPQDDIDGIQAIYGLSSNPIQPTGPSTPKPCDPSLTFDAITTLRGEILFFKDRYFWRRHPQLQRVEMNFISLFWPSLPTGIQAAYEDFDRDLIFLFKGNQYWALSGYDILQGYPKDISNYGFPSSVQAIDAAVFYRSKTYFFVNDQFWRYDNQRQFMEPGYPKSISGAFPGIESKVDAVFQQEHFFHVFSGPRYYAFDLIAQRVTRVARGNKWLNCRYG", "assay": "Inhibition of Matrix metalloprotease-8 (MMP-8)"}},
  "data": [
    {"smiles": "CNC(=O)[C@@H]1CCCN(S(=O)(=O)c2ccccc2)CCCCO[C@H](C(=O)NO)[C@@H](CCCc2ccccc2)C(=O)N1", "values": [
      {"measurement": "Ki", "setting": "[1]", "result": 0.002, "unit": "µM"},
      {"measurement": "Ki", "setting": "[2]", "result": 0.11, "unit": "µM"}
    ]},
    {"smiles": "CNC(=O)[C@@H]1CCCN(C(C)=O)CCCCO[C@H](C(=O)NO)[C@@H](CCCc2ccccc2)C(=O)N1", "values": [
      {"measurement": "Ki", "setting": "[1]", "result": 0.006, "unit": "µM"},
      {"measurement": "Ki", "setting": "[3]", "result": 0.038, "unit": "µM"},
      {"measurement": "Ki", "setting": "[2]", "result": 0.248, "unit": "µM"}
    ]},
    {"smiles": "CNC(=O)[C@@H]1CCCN(C(C)=O)CC(C)CO[C@H](C(=O)NO)[C@@H](CCCc2ccccc2)C(=O)N1", "note": "(some centres not stated)", "values": [
      {"measurement": "Ki", "setting": "[1]", "result": 0.013, "unit": "µM"},
      {"measurement": "Ki", "setting": "[3]", "result": 0.267, "unit": "µM"},
      {"measurement": "Ki", "setting": "[2]", "result": 0.44, "unit": "µM"},
      {"measurement": "Ki", "setting": "[4]", "result": 0.007, "unit": "µM"}
    ]},
    {"smiles": "CNC(=O)[C@@H]1CCCN(C(=O)OC(C)(C)C)CCCCO[C@H](C(=O)NO)[C@@H](CCCc2ccccc2)C(=O)N1", "values": [
      {"measurement": "Ki", "setting": "[1]", "result": 0.019, "unit": "µM"},
      {"measurement": "Ki", "setting": "[3]", "result": 0.373, "unit": "µM"},
      {"measurement": "Ki", "setting": "[2]", "result": 1.07, "unit": "µM"},
      {"measurement": "Ki", "setting": "[4]", "result": 0.013, "unit": "µM"}
    ]},
    {"smiles": "CNC(=O)[C@@H]1CCCNCCCCO[C@H](C(=O)NO)[C@@H](CCCc2ccccc2)C(=O)N1", "values": [
      {"measurement": "Ki", "setting": "[1]", "result": 0.021, "unit": "µM"},
      {"measurement": "Ki", "setting": "[3]", "result": 0.265, "unit": "µM"},
      {"measurement": "Ki", "setting": "[2]", "result": 0.496, "unit": "µM"},
      {"measurement": "Ki", "setting": "[4]", "result": 0.004, "unit": "µM"}
    ]}
  ]
}
